Our source for the melting point values is patent publication US7790709B2 (dated 2010).

In general, melting point refers to the temperature, or range, at which the solid turns liquid. In the case of `CN(Cc1cc2ccccc2n1C)C(=O)/C=C/c1ccc(N2C(=O)CCC2=O)nc1`, the melting point lay within 185 to 187 °C.
For `CN(Cc1cc2ccccc2n1C)C(=O)/C=C/c1ccc(NC(=O)CCC(N)=O)nc1`, the melting point was in the range of 225 to 227 °C.
For `CN(Cc1cc2ccccc2n1C)C(=O)/C=C/c1ccc(NC(=O)CCC(=O)N2CCOCC2)nc1` the value was 206 to 209 °C (dec.).
